Where no end group is shown, it is not given here.
Key:
Format in all cases: cell-based
[1] = tested on: nucleated erythrocytes derived from human cord blood; assay: Enucleation rate of nucleated erythrocytes derived from human cord blood CD34-positive cells (DAPI staining and flow cytometry); conditions: 5.0 μM added on Day 4 in phase II, measured on Day 9; DAPI staining (FIG. 7) and flow cytometry (FIG. 8)
Procedure: CD34-positive hematopoietic stem cells derived from a human (derived from the cord blood, 90% or more CD34-positive, product from Lonza:
http://catalog.takara-bio.co.jp/product/basic_info.asp?unitid=U10 0004262) were cultured in HPGM medium. The cells at a density of 2×10^4 to 2×10^5 cells/ml were cultured with 25 ng/ml of SCF, 50 ng/ml of thrombopoietin, and 50 ng/ml of Flt-3 ligand for first 7 days, and this was used as a phase I.
Next, the cells at a density of 2×10^5 cells/ml were cultured with 3 U/ml of EPO, 25 ng/ml of SCF, 10 ng/ml of IL-3, and 10 ng/ml of IL-6, and this was used as a phase II. The cells were cultured with the addition of ACTH1-24, ACTH1-39, CLIP, or α-MSH at a concentration of 5.0 μM, or ACTH1-24 at a concentration of 0.5 μM on Day 4 in the phase II.
The erythrocytes in the above-mentioned phase II cultured with ACTH1-24, ACTH1-39, CLIP, or α-MSH on Day 9 were fixed with 10% formalin, and stained with 4′,6-diamidino-2-phenylindole (DAPI). Ten photographs were randomly taken under a fluorescence microscope, and the numbers of nucleated and enucleated erythrocytes were visually counted. The measurement was carried out in the blinded manner. The enucleation rate was calculated in the same manner as in Example 1.
(§1) Double staining for glycophorin A (Gly A) and the nucleus (propidium iodide, PI) was given to blood cells in the phase II cultured with ACTH1-24, CLIP, or α-MSH on Day 9 in the same manner as in the foregoing. The cells were analyzed using a flow cytometry (automatic cell analysis sorting apparatus, FACS Calibur/Becton Dickinson). Gly A-positive/PI-negative cells (corresponding to the left upper fraction of four dot plot fractions divided by data from flow cytometry in FIG. 9B) were determined as enucleated cells, and the enucleation rate of these enucleated cells relative to the total cells was calculated.

[2] = tested on: nucleated erythrocytes derived from a fetal rat; assay: Enucleation rate of nucleated erythrocytes derived from fetal rat (DAPI staining, fluorescence microscope count); conditions: vs control without peptide
Procedure: Experimental rats were bred, and peripheral blood was collected from 12 fetuses aged 13 days post coitum.
The collected peripheral blood was centrifuged at 1,000×g for 5 minutes at room temperature (centrifuge: Hitachi/05PR-22). Then, serum was removed, and blood cells were suspended in 10 ml of culture medium (supplemented with 10% FBS (Sigma/CR1211)/RPMI-1640 Medium (c) (Sigma/R8578)/1% penicillin-streptomycin (Sigma/P4333)) in a clean bench. This suspension was centrifuged again, a supernatant was removed, and the cells were resuspended in the culture medium. This manipulation was repeated twice, and finally the cells were suspended in 10 ml of the culture medium to prepare a sample for culturing peripheral blood.
A blood cell (cell) density was counted using about 10 μl of this sample and a hemocytometer (Burker-Turk Deep 1/10 mm/Erma Tokyo/7787), and the sample was diluted based on the counted value to adjust to 2×10^6 cells/ml.
This sample was diluted to a cell density of 1×10^6 cells/ml with the culture medium, to which ACTH1-24 (SEQ ID NO: 2, manufactured by Sigma) was added at a final concentration of 1 μM or 5 μM to use as a subject culture medium. The sample to which no ACTH1-24 was added was used as a control.
1 ml each of the various subject culture media was dispensed into a 4-well chamber slide glass (Chamber Slide™ System/Lab Tek (registered trademark)/177380), and cultured for a predetermined period of time in an incubator (Sakura CO2 gas Incubator/Sakura/IC-160) under the condition at 37° C. at 5% CO2.
At 0, 3, and 6 hours of the culture, the cells in each subject culture medium were fixed with glutaraldehyde (25% glutaraldehyde solution/Wako Pure Chemical Industries Ltd./073-00536) at a final concentration of 2%. DAPI (1 mg/ml of DAPI solution/DOJINDO/340-07971) for staining nuclei was dripped to the culture medium at a final volume ratio of 1/20,000, which was then shaken for 5 minutes, subsequently excited by a UV source using a fluorescence microscope (OLYMPUS IX70), and 10 fixed points were photographed. Then, the number of cells in the photograph was counted.
The enucleation rate was calculated as follows. Enucleation rate (%)={Enucleated erythrocyte count/Total cell count (Nucleated cell (including nucleated erythrocytes and mesenchymal stem cells) count+Enucleated erythrocyte count)} […]
This sample was diluted to a cell density of 1×10^6 cells/ml with the culture medium, to which CLIP (SEQ ID NO: 11, manufactured by Sigma) or α-MSH (SEQ ID NO: 3, manufactured by Sigma) was added at a final concentration of 1 μM or 5 μM to use as a subject culture medium. The sample to which neither CLIP nor α-MSH was added was used as a control.
250 μl each of the various subject culture media were dispensed in an 8-well chamber slide glass (Chamber Slide™ System/Lab TekR/177402), and cultured for a predetermined period of time in an incubator under the condition at 37° C. at 5% CO2. At 3, 6, and 9 (only for the 5-μM addition samples) hours of the culture, each subject culture medium was sampled, and the culture medium was fixed with glutaraldehyde at a final concentration of 2%. DAPI for staining nuclei was dripped to the culture medium, which was then shaken for 5 minutes, subsequently microscopically observed using a fluorescence microscope, and 10 field images were randomly determined and photographed. The number of cells in each of the photographs was counted, and the mean value thereof was calculated. The enucleation rate was calculated in the same way as in Example 1.

[3] = tested on: cells differentiating into erythrocytes derived from human cord blood; assay: Enucleation efficiency of cells derived from human cord blood (flow cytometry, Gly A/PI); conditions: 0.5 μM, culture as in Example 4, flow cytometry (FIG. 9A)
Procedure: as §1
ACTH1-24 at a concentration of 0.5 μM was added to the culture carried out in the same manner as in Example 4, and the enucleation rate was measured by flow cytometry.
Gly A is a surface marker of erythroblasts, reticulocytes, and mature erythrocytes. Thus, this method was cited as a method of measuring the percentage of “enucleated erythrocytes”/“cells differentiating into erythrocytes” in a population of blood cells including immature erythrocytes (see Peng J. et al., Nat. Cell Biol., 10: 314-321, 2008).

[4] = final concentration 1 μM, after 6 hours of culture
[5] = final concentration 5 μM, 3 hours of culture

Row | Substance | induction of enucleation (enucleation rate) [1] | induction of enucleation (enucleation rate) [2, 4] | induction of enucleation (enucleation rate) [2, 5] | percentage of enucleated erythrocytes in cells differentiating into erythrocytes [3] | induction of enucleation (enucleation rate) ([2]; final concentration 5 μM, after 6 hours of culture)
1 | RPVKVYPNGAEDESAEAFPLEF [CLIP, Corticotropin-Like Intermediate Lobe Peptide, manufactured by Sigma] | able to be induced | able to be induced | able to be induced | – | –
2 | Acetyl-(N)-Ser-Tyr-Ser-Met-Glu-His-Phe-Arg-Trp-Gly-Lys-Pro-Val-NH2 (Ac-SYSMEHFRWGKPV-NH2) [α-MSH, melanocyte-stimulating hormone peptide containing an acetyl group, manufactured by Sigma] | able to be induced | able to be induced | able to be induced | – | –
3 | SYSMEHFRWGKPVGKKRRPVKVYPNVAENESAEAFPLEF [ACTH1-39, adrenocorticotropic hormone, manufactured by Sigma] | able to be induced | – | higher than that in the control | – | –
4 | Ser-Tyr-Ser-Met-Glu-His-Phe-Arg-Trp-Gly-Lys-Pro-Val-Gly-Lys-Lys-Arg-Arg-Pro-Val-Lys-Val-Tyr-Pro (SYSMEHFRWGKPVGKKRRPVKVYP; ACTH1-24) | able to be induced | able to be induced | – | about 70% | able to be induced
